The nature of data set [1]: Viable cell number, trypan blue exclusion assay. It is filed as cell-based. Conditions: human, NCI-H460 cells, read-out: Number of viable cells (in relation to Blank cells). The procedure: NCI-H460 cells were plated in 6-well plates (1 × 10^5 cells/well) in RPMI-1640 medium with UltraGlutamine I and 25 mM Hepes (Lonza) supplemented with 10% FBS (PAA) at 37 °C in a humidified incubator with 5% CO2 for 24 h. […] These concentrations corresponded respectively to 5.2 μM and 7.8 μM for compound 5 and to 3.2 μM and 4.8 μM for compound 8. Cells were also incubated with medium only (Blank) or with the vehicle (solvent, H2O), corresponding to the highest concentration used when testing the compounds. Following treatment with the compounds, cells were further processed as follows.
Cell number and % viable cells was determined with the Trypan blue exclusion assay.

Data set [2] relates to HSP90 client proteins in STO cells. The data set can be described thus: HSP90 client protein levels by Western blot. Conditions: 24 h. It is filed as cell-based, human. The text has this: (§1) For the cytotoxic activity studies and determination of GI50 concentrations in three different tumor cell lines, the cell culture conditions are described in Section 3.5. For the studies on the effect on % viable cells, cell cycle, cellular proliferation, and apoptosis, culture conditions are described in Section 3.6.1. For the remaining studies, the epithelial carcinoma cell line A431 and the non-small cell lung carcinoma cell line NCI-H460 were routinely grown in RPMI 1640 (Lonza, Vierviers, Belgium), supplemented with 10% (v/v) heat-inactivated fetal bovine serum (FBS, GIBCO, Invitrogen, Paisley, UK). The human peritoneal mesothelioma cell line STO was kindly provided by Dr. N. Zaffaroni (IRCCS Istituto Nazionale Tumori, Milan, Italy) and grown in 50/50 DMEM-Ham’s F12 medium (Lonza, Vierviers, Belgium), supplemented with 10% (v/v) heat-inactivated foetal bovine serum and 2 mM L-glutamine (L-Gln). All cell lines were maintained at 37 °C in a 5%/95% CO2/air atmosphere. All the compounds tested were freshly prepared by dissolving powder in dimethylsulfoxide (DMSO) (BDH Prolabo, Milan, Italy) and following dilution in culture medium. Cells were incubated with drugs for 48 h or 72 h (unless otherwise stated) at 37 °C in culture medium supplemented with 10% (v/v) heat-inactivated FBS; drug concentrations used for each assay and duration of treatments are reported in Legends to Figures.
(§2) Total cell lysates were prepared as described previously. Primary antibodies used in this study are: anti-Raf-1 and anti-CDK4 (Santa Cruz Biotechnology Inc., Santa Cruz, CA, USA), anti-Survivin (Abcam, Cambridge, UK), anti-Akt (Transduction Laboratories, Lexington, KY, USA), and anti-Actin Sigma Chemical Co., St. Louis, MO, USA).
On the technique in general: A western blot detects proteins with antibodies after separation by electrophoresis.

For data set [3], the system named is HSP90 client proteins in A431 cells. The data set can be described thus: HSP90 client protein levels by Western blot. It is filed as cell-based, human. Conditions: 24 h.
Description: as §1, §2

In data set [4] the test system is NCI-H460. The data set can be described thus: Apoptosis, Annexin V-FITC/PI flow cytometry. The conditions noted are these: for % Apoptosis: 48 h, sum of early and late apoptosis; for Induction of apoptosis at cytotoxic concentrations: GI50 and 1.5× GI50, 48 h, Annexin V and propidium iodide. It is filed as cell-based, human. The protocol: NCI-H460 cells were plated in 6-well plates (1 × 10^5 cells/well) in RPMI-1640 medium with UltraGlutamine I and 25 mM Hepes (Lonza) supplemented with 10% FBS (PAA) at 37 °C in a humidified incubator with 5% CO2 for 24 h. […] These concentrations corresponded respectively to 5.2 μM and 7.8 μM for compound 5 and to 3.2 μM and 4.8 μM for compound 8. Cells were also incubated with medium only (Blank) or with the vehicle (solvent, H2O), corresponding to the highest concentration used when testing the compounds. Following treatment with the compounds, cells were further processed as follows. Following 48 h treatment, the levels of apoptosis were assessed using the “Human AnnexinV-FITC/PI apoptosis” kit (Bender MedSystems, Wien, Austria) as previously described. Briefly, cell pellets were resuspended in binding buffer and further incubated with Annexin V-FITC and with propidium iodide. Samples were analyzed in a FACSCalibur flow cytometer (BD Biosciences, Erembodegem, Belgium), plotting at least 15,000 events and using the FlowJo 7.6.5 software (Tree Star, Inc., Ashland, OR, USA).

A further data set relates to STO. Description: Cell-counting assay, 72-h drug exposure. In kind it is cell-based. The conditions noted are these: Homo sapiens, read-out: Cell Growth Inhibitory Activity STO IC50 72 h.
Description: as §1
(§3) Cellular sensitivity to drugs was evaluated by a cell-counting assay after 72-h drug exposure. Cells in the logarithmic phase of growth were seeded in duplicate into 6-well plates. Twenty-four hours after seeding, the drug was added to the medium. Cells were harvested 72 h after drug exposure and counted with a cell counter.

The next data set relates to A431. Description: Cell-counting assay, 72-h drug exposure. Conditions: Homo sapiens, A-431, read-out: Cell Growth Inhibitory Activity A431 IC50 72 h. It is filed as cell-based.
Description: as §1, §3

Data set [5] deals with NCI-H460. The data set can be described thus: Cellular proliferation, BrdU incorporation assay. It is filed as cell-based, human. Conditions: 48 h. The protocol: NCI-H460 cells were plated in 6-well plates (1 × 10^5 cells/well) in RPMI-1640 medium with UltraGlutamine I and 25 mM Hepes (Lonza) supplemented with 10% FBS (PAA) at 37 °C in a humidified incubator with 5% CO2 for 24 h. […] These concentrations corresponded respectively to 5.2 μM and 7.8 μM for compound 5 and to 3.2 μM and 4.8 μM for compound 8. Cells were also incubated with medium only (Blank) or with the vehicle (solvent, H2O), corresponding to the highest concentration used when testing the compounds. Following treatment with the compounds, cells were further processed as follows. Following 47 h treatment, cells were further incubated with 10 μM bromodeoxyuridine (BrdU; Sigma) for 1 h. Cells were then trypsinized and fixed in 4% paraformaldehyde (in PBS) for 30 min. Cytopsins were prepared and a 20 min denaturation step was carried out by incubating slides in 2 M HCl. Following incubation with mouse anti-BrdU primary antibody (1/10, Dako) for 1 h at room temperature (RT), cells were further incubated with anti-mouse-Ig-FITC (1/100, Dako) for 30 min, at RT [21]. Slides were then mounted with Vectashield mounting medium with DAPI (Vector Laboratories). The percentage of BrdU incorporating cells was determined by counting a minimum of 500 cells per slide (except for one experiment in which due to technical difficulties less cells were counted when testing the compound 8) using a fluorescence microscope (DM2000; Leica, Wetzlar, Germany ).
Background: Incorporation of labelled thymidine or its analogues reports DNA synthesis.

What is called IC50 is the point on the concentration scale where inhibition reaches its midpoint. For `O=c1c2ccccc2oc2c[n+](Cc3ccccc3)ccc12.[Br-]` [Compound 5, 2-Benzyl-10-oxo-10H-9-oxa-2-azonia-anthracene bromide], the viability at 48 h, 5.2 µM in data set [1] (5.2 μM (GI50)) worked out at 71%. The viability at 48 h, 7.8 µM in data set [1] (7.8 μM (1.5× GI50)) was found to be 49%. In addition, the CDK4 protein level result in data set [2] (2.7 μM) and in data set [3] (5.4 μM) was “almost complete downregulation” each time. Also, the Survivin protein level result in data set [2] (2.7 μM) and in data set [3] (5.4 μM) was “partial downregulation” throughout. The “% Apoptosis” value with NCI-H460 [4] (5.2 μM, Blank 7.0 ± 0.6) is recorded as 7.2 ± 1.4%; with NCI-H460 [4] (7.8 μM, Blank 7.0 ± 0.6) it was 7.3 ± 0.9%. Also, the “Induction of apoptosis at cytotoxic concentrations” value in the data set on NCI-H460 [4] is listed as “did not induce apoptosis”. The IC50 is 2700 ± 800 nM in the data set with STO and 1360 ± 50 nM in the data set on A431. Also, the “Percentage of BrdU-incorporating cells” value in the data set on NCI-H460 [5] (1.5× GI50 (7.8 μM), untreated cells 32%) came out at 22%; in the data set on NCI-H460 [5] (GI50 (5.2 μM), untreated cells 32%), 25%.
For the molecule `O=c1c2ccccc2sc2c[n+](Cc3ccccc3)ccc12.[Br-]` [Compound 8, 2-Benzyl-5-oxo-5H-thiochromeno[2,3-c]pyridin-2-ium bromide], in data set [1] (3.2 μM (GI50)), the viability at 48 h, 3.2 µM worked out at 57%. In addition, the viability at 48 h, 4.8 µM in data set [1] (4.8 μM (1.5× GI50)) turned out to be 29%. The Survivin protein level entry was “caused degradation” in data set [2] (2.6 μM) and “less marked” in data set [3] (2.6 μM, compared with STO cells). Also, the Akt protein level entry in data set [3] (2.6 μM) was “partial downregulation”. Further, the EGFR protein level result in data set [3] (2.6 μM) is listed as “partial downregulation”. For the same molecule, the RAF protein level entry in data set [3] (2.6 μM) was “strong downregulation”. Further, the “% Apoptosis” value with NCI-H460 [4] (3.2 μM, Blank 5.2 ± 0.9) worked out at 6.7 ± 1.4%; with NCI-H460 [4] (4.8 μM, Blank 5.2 ± 0.9), 12.5 ± 1.7 %. The “Induction of apoptosis at cytotoxic concentrations” value in the data set with NCI-H460 [4] was “induced apoptosis”. Further, the results for the half-inhibitory concentration (IC50) in the data set with STO and in the data set on A431 were 260 ± 80 nM and 260 ± 400 nM, respectively. Moreover, the “Percentage of BrdU-incorporating cells” value in the data set on NCI-H460 [5] (1.5× GI50 (4.8 μM), untreated cells 31%) was 21%; with NCI-H460 [5] (GI50 (3.2 μM), untreated cells 31%), 26%.

These data come from article PMC6017909, “Synthesis and Evaluation of the Tumor Cell Growth Inhibitory Potential of New Putative HSP90 Inhibitors” (Molecules : A Journal of Synthetic Chemistry and Natural …, 2018).
